Laboratory results: US20030118577A1, “Use of analogues of superoxide dismutase for treating hepatocellular insufficiencies” (priority 2000, published 2003)

What was measured:
[1] = test system: acute hepatic insufficiency induced by anti-Fas antibodies; experiment: Survival of mice after injection of anti-Fas antibody (fulminant hepatitis); format: in vivo; conditions: at 24 hours; 6 μg anti-Fas antibody iv; MnTBAP 10 mg/kg 2 hours beforehand; FIG. 3
Experimental: The injection of these antibodies into mice causes fulminant hepatitis due to a massive apoptosis of the hepatocytes, causing the death of the mice within a few hours following the injection [OGASAWARA et al., Nature, 364, pp. 806-809, (1993); NAGATA, Prog. Mol. Subcell. Biol., 16, pp. 87-103, (1996)].
27 control mice received, by intravenous injection, 6 μg of an anti-Fas monoclonal antibody (clone J02; PHARMINGEN) diluted in 100 μl of physiological saline; a second group of 15 mice received the same treatment, preceded by the administration, 2 hours beforehand, of 10 mg/kg of MnTBAP, as described in Example 1 above; a control group received MnTBAP alone (10 mg/kg).

[2] = known; cited from earlier work
[3] = test system: acute hepatic insufficiency induced by acetaminophen; experiment: Assay of serum transaminases ALAT and ASAT after acetaminophen; format: in vivo, mice; conditions: MnTBAP 10 mg/kg 2 h before, after 24 hours
Experimental: The serum transaminases ALAT and ASAT are assayed 12 hours and 24 hours after the administration of acetaminophen.
Since the results risked being biased by the fact that the mice surviving 24 hours after the administration of acetaminophen were probably, regardless of the group involved, those which had the lowest transaminase activity, a second series of experiments were carried out, administering 500 mg/kg of acetaminophen, the other experimental conditions remaining the same. At this dosage, all the mice were still alive after 24 hours.
The results are illustrated by FIGS. 2A and 2B, which represent the ASAT and ALAT activity, respectively, according to the products administered.

[4] = test system: acute hepatic insufficiency induced by acetaminophen; experiment: Histological study of livers after acetaminophen; format: in vivo; conditions: mice which received acetaminophen, treated with MnTBAP
Text: In each of the groups, the livers of several animals were removed, in order to carry out a histological study.

[5] = test system: ischemic lesions of hepatic grafts; experiment: Transaminase release from removed mouse livers in Belzer's preservation fluid; conditions: Belzer's fluid with MnTBAP 10 μg/ml; 4° C.
Experimental: Ischemia of hepatic grafts after their removal and during their preservation at 4° C. causes hepatocytic lesions.
The intensity of the lesions may be evaluated on the concentration of transaminases in the preservation fluid.
Mouse livers were surgically removed, rinsed with Belzer's preservation fluid supplemented or otherwise with MnTBAP at the concentration of 10 μg/ml. The transaminases were then assayed in the fluid at various times after removal of the organ.

[6] = test system: acute hepatic insufficiency induced by acetaminophen; experiment: Survival of mice after intraperitoneal acetaminophen (acute hepatic insufficiency); conditions: for rate of survival: 24 hours after acetaminophen 1000 mg/kg ip, FIG. 1
Experimental: The intraperitoneal injection of acetaminophen into mice induces a severe hepatotoxicity, the degree of which may be evaluated by the survival of the animals, measuring transaminase activities, and macroscopic and microscopic examination of the livers.
The acetaminophen in solution at 100 mg/ml in PBS at pH 7.4 is administered by the intraperitoneal route.
In a first series of experiments, a group of mice received a dose of 1000 mg/kg of acetaminophen; a second group received a dose of 1000 mg/kg of acetaminophen and a dose of 10 mg/kg of MnTBAP administered either 2 h before the acetaminophen or 6 h after; a control group received either MnTBAP alone (10 mg/kg), or PBS alone.
The survival of the animals is monitored for 24 hours after the administration of acetaminophen.
The effect of N-acetyl-L-cysteine (NAC), of CuDIPS, and of MnTBAP on the survival of mice after intraperitoneal injection of 1000 mg/kg of acetaminophen (APAP) was compared.
MnTBAP, NAC, or CuDIPS are administered in the form of a bolus, preventively, 2 hours before (P) or, curatively, 6 hours after (C) the acetaminophen.
The survival of the animals is monitored for 24 hours after administration of acetaminophen.

O=C(O)c1ccc(-c2c3nc(c(-c4ccc(C(=O)O)cc4)c4ccc([n-]4)c(-c4ccc(C(=O)O)cc4)c4nc(c(-c5ccc(C(=O)O)cc5)c5ccc2[n-]5)C=C4)C=C3)cc1.[Mn+3] [MnTBAP, Mn(III) tetrakis(5,10,15,20-benzoic acid)porphyrin]
rate of survival [1]: ~60% | catalase activity [2]: known to possess a catalase activity | transaminase activities (ASAT, ALAT), fold lower than without MnTBAP ([3]; acetaminophen 500 mg/kg (APAP500)): 10 fold | transaminase activities (ASAT, ALAT), fold lower than without MnTBAP ([3]; acetaminophen 1000 mg/kg (APAP1000)): 6 fold | apoptotic lesions in liver, versus untreated animals [4]: a lot fewer apoptotic lesions | release of transaminases by the liver into preservation fluid [5]: reduction in the release of transaminases | rate of survival ([6]; MnTBAP 10 mg/kg ip 2 h before acetaminophen): ~60% | rate of survival ([6]; MnTBAP 10 mg/kg ip 6 h after acetaminophen): greater than 40% | effect on survival rate, administered preventively ([6]; APAP 1000 mg/kg, 2 hours before (P)): increases the survival rate in a manner at least equal to NAC | activity on survival, curative versus preventive administration ([6]; APAP 1000 mg/kg, 6 hours after (C) or 2 hours before (P)): active when it is administered curatively | activity on survival by the oral route ([6]; APAP 1000 mg/kg, per os): active | percentage of surviving animals ([6]; Group II: MnTBAP 10 mg/kg alone, no APAP, time 0 h): 100% | percentage of surviving animals ([6]; Group II: MnTBAP 10 mg/kg alone, no APAP, time 6 h): 100% | percentage of surviving animals ([6]; Group II: MnTBAP 10 mg/kg alone, no APAP, time 8 h): 100% | percentage of surviving animals ([6]; Group II: MnTBAP 10 mg/kg alone, no APAP, time 9 h): 100% | percentage of surviving animals ([6]; Group II: MnTBAP 10 mg/kg alone, no APAP, time 10 h): 100% | percentage of surviving animals ([6]; Group II: MnTBAP 10 mg/kg alone, no APAP, time 11 h): 100% | percentage of surviving animals ([6]; Group II: MnTBAP 10 mg/kg alone, no APAP, time 12 h): 100% | percentage of surviving animals ([6]; Group II: MnTBAP 10 mg/kg alone, no APAP, time 13 h): 100% | percentage of surviving animals ([6]; Group II: MnTBAP 10 mg/kg alone, no APAP, time 14 h): 100% | percentage of surviving animals ([6]; Group II: MnTBAP 10 mg/kg alone, no APAP, time 15 h): 100% | percentage of surviving animals ([6]; Group II: MnTBAP 10 mg/kg alone, no APAP, time 16 h): 100% | percentage of surviving animals ([6]; Group II: MnTBAP 10 mg/kg alone, no APAP, time 17 h): 100% | percentage of surviving animals ([6]; Group II: MnTBAP 10 mg/kg alone, no APAP, time 18 h): 100% | percentage of surviving animals ([6]; Group II: MnTBAP 10 mg/kg alone, no APAP, time 20 h): 100% | percentage of surviving animals ([6]; Group II: MnTBAP 10 mg/kg alone, no APAP, time 22 h): 100% | percentage of surviving animals ([6]; Group II: MnTBAP 10 mg/kg alone, no APAP, time 24 h): 100% | percentage of surviving animals ([6]; Group IX: APAP 1000 mg/kg, MnTBAP 50 mg/kg (P) per os, time 0 h): 100% | percentage of surviving animals ([6]; Group IX: APAP 1000 mg/kg, MnTBAP 50 mg/kg (P) per os, time 6 h): 100% | percentage of surviving animals ([6]; Group IX: APAP 1000 mg/kg, MnTBAP 50 mg/kg (P) per os, time 8 h): 88.8% | percentage of surviving animals ([6]; Group IX: APAP 1000 mg/kg, MnTBAP 50 mg/kg (P) per os, time 9 h): 88.8% | percentage of surviving animals ([6]; Group IX: APAP 1000 mg/kg, MnTBAP 50 mg/kg (P) per os, time 10 h): 88.8% | percentage of surviving animals ([6]; Group IX: APAP 1000 mg/kg, MnTBAP 50 mg/kg (P) per os, time 11 h): 88.8% | percentage of surviving animals ([6]; Group IX: APAP 1000 mg/kg, MnTBAP 50 mg/kg (P) per os, time 12 h): 88.8% | percentage of surviving animals ([6]; Group IX: APAP 1000 mg/kg, MnTBAP 50 mg/kg (P) per os, time 13 h): 88.8% | percentage of surviving animals ([6]; Group IX: APAP 1000 mg/kg, MnTBAP 50 mg/kg (P) per os, time 14 h): 88.8% | percentage of surviving animals ([6]; Group IX: APAP 1000 mg/kg, MnTBAP 50 mg/kg (P) per os, time 15 h): 88.8% | percentage of surviving animals ([6]; Group IX: APAP 1000 mg/kg, MnTBAP 50 mg/kg (P) per os, time 16 h): 88.8% | percentage of surviving animals ([6]; Group IX: APAP 1000 mg/kg, MnTBAP 50 mg/kg (P) per os, time 17 h): 77.7% | percentage of surviving animals ([6]; Group IX: APAP 1000 mg/kg, MnTBAP 50 mg/kg (P) per os, time 18 h): 66.6% | percentage of surviving animals ([6]; Group IX: APAP 1000 mg/kg, MnTBAP 50 mg/kg (P) per os, time 20 h): 66.6% | percentage of surviving animals ([6]; Group IX: APAP 1000 mg/kg, MnTBAP 50 mg/kg (P) per os, time 22 h): 66.6% | percentage of surviving animals ([6]; Group IX: APAP 1000 mg/kg, MnTBAP 50 mg/kg (P) per os, time 24 h): 66.6% | percentage of surviving animals ([6]; Group V: APAP 1000 mg/kg, MnTBAP 10 mg/kg (P), time 0 h): 100% | percentage of surviving animals ([6]; Group V: APAP 1000 mg/kg, MnTBAP 10 mg/kg (P), time 6 h): 100% | percentage of surviving animals ([6]; Group V: APAP 1000 mg/kg, MnTBAP 10 mg/kg (P), time 8 h): 100% | percentage of surviving animals ([6]; Group V: APAP 1000 mg/kg, MnTBAP 10 mg/kg (P), time 9 h): 91.4% | percentage of surviving animals ([6]; Group V: APAP 1000 mg/kg, MnTBAP 10 mg/kg (P), time 10 h): 88.6% | percentage of surviving animals ([6]; Group V: APAP 1000 mg/kg, MnTBAP 10 mg/kg (P), time 11 h): 77.1% | percentage of surviving animals ([6]; Group V: APAP 1000 mg/kg, MnTBAP 10 mg/kg (P), time 12 h): 74.3% | percentage of surviving animals ([6]; Group V: APAP 1000 mg/kg, MnTBAP 10 mg/kg (P), time 13 h): 74.3% | percentage of surviving animals ([6]; Group V: APAP 1000 mg/kg, MnTBAP 10 mg/kg (P), time 14 h): 71.4% | percentage of surviving animals ([6]; Group V: APAP 1000 mg/kg, MnTBAP 10 mg/kg (P), time 15 h): 71.4% | percentage of surviving animals ([6]; Group V: APAP 1000 mg/kg, MnTBAP 10 mg/kg (P), time 16 h): 68.6%
